In US7169783B2, “(+)-Trans-4-(1-aminoethyl)-1-(4-pyridycarbamoyl)-cyclohexane and method for promoting neural growth in the central nervous system and in a patient at a site of neuronal lesion” (Universite de Montreal, priority 1998, dated 2007):

What was measured:
[1] = test system: primary retinal neurons; assay: Neurite growth of primary retinal neurons on complex inhibitory substrates (CSPG, myelin); format: cell-based, rats; settings: plated on myelin or CSPG; 48 hours; FIG. 8
[2] = test system: corticospinal tract (CST) fibers; design: species or system Balb-c female mice; settings: mouse, in vivo
[3] = test system: hindlimb motor function; assay: Behavioral recovery after SCI, modified BBB locomotor rating scale; format: in vivo, mice
Protocol: Since a toe clearance phase cannot be evaluated in recuperating mice, we modified the rating to a 17 point scale. Behavioral recovery was assessed for one month after SCI in an open field environment by the BBB method (Basso et al., 1995). […] Thus, scale points 16, 17 and 18 were removed from the scale. Mice raise their tail early in their recovery, and score 19 for tail up position was removed, leaving a 17 point total score. The mouse modified BBB score was as follows: [0] no observable hindlimb (HL) movement; […] […] In the late phase of recovery, the BBB score was determined from sequences of 4 steps or more from digitized videos projected on a computer screen at ¼ speed.

What does the source list for `C[C@@H](N)[C@H]1CC[C@H](C(=O)Nc2ccncc2)CC1` [Y27632, (+)-Trans-4-(1-aminoethyl)-1-(4-pyridycarbamoyl)-cyclohexane]?
length of neurites compared to untreated cells [1]: significantly increased the length of neurites; distance of the longest axon from the lesion site [2]: up to 3 mm; sprouting of transected CST axons [2]: regenerative sprouting into the dorsal white matter and toward the lesion site; locomotor recovery over 1 month ([3]; 1 month period of observation): exhibited hindlimb-forelimb coordination; locomotor recovery at 24 hours after surgery ([3]; 24 hours, control mice paraplegic, FIG. 10): already walking with weight support
